The target in data set [1] is T1, Sclerostin (Homo sapiens, UniProt Q9BQB4).
T1 sequence (Q9BQB4 whole entry): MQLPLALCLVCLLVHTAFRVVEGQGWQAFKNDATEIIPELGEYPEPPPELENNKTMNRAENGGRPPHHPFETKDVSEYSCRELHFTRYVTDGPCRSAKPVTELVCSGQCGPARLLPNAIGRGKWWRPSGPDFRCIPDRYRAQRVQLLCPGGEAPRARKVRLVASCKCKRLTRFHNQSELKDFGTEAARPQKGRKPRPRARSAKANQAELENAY
The data set can be described thus: Binding affinity to SOST loop3 (unknown origin) by SPR analysis. (Surface plasmon resonance follows binding to a sensor surface in real time, without labels.)

Data set [2] has as its target T1, Sclerostin. Put plainly: Binding affinity to SOST (unknown origin) by SPR analysis.
Data set [3] concerns the target T1, Sclerostin. The data set can be described thus: Binding affinity to SOST loop2 (unknown origin) by SPR analysis.
The species named for data set [4] is Homo sapiens. Put plainly: Binding affinity to FABP (unknown origin).
Data set [5] can be described thus: Cmax in sc dosed Sprague-Dawley rat. The format is ADME, organism-based. Particulars: in vivo.
Data set [6] in a line: Half-life in sc dosed Sprague-Dawley rat. The format is ADME, organism-based. Conditions: in vivo.
Data set [7] concerns the target Albumin (Homo sapiens, UniProt P02768). Put plainly: Binding affinity to human serum albumin. The format is ADME. Particulars: isolated protein.
Data set [8] can be described thus: AUC in sc dosed Sprague-Dawley rat. In kind it is ADME, organism-based. Conditions: in vivo.

Calls of active or inactive are those of the source.

As a reminder, the Kd is the free concentration of one partner at which half of the binding sites on the other are occupied at equilibrium, for simple one-to-one binding. By Cmax is commonly meant the peak of the concentration-time curve. As usually defined, the half-life is the time needed for the level to fall by half in the phase considered. In general, AUC refers to concentration integrated over time. A higher AUC goes with high exposure.

Sequence of Albumin (P02768 whole entry): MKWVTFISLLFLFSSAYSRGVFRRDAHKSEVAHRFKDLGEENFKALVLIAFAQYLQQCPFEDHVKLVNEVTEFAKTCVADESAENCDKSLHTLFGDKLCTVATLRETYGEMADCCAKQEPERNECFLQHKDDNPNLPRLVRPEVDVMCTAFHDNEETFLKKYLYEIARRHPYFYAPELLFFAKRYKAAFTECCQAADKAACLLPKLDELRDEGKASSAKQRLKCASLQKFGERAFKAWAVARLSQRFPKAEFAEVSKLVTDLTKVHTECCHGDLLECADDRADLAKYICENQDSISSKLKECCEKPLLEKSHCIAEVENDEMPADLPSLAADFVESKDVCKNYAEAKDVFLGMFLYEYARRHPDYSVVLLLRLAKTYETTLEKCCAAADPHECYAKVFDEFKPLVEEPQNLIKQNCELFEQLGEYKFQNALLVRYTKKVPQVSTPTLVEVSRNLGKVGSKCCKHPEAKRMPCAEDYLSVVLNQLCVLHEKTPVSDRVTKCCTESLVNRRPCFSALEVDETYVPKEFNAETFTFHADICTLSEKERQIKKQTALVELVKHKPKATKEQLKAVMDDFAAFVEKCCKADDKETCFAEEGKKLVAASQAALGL

On to `Nc1nc2c(c(=O)[nH]1)NC(CNc1ccc(C(=O)N[C@@H](CCC(=O)O)C(=O)O)cc1)CN2` (some centres undefined), for which the figures for the Kd in data set [1] and in data set [2] were 0.0424 µM and 0.0377 µM, respectively.

On to `O=C1c2c(O)cc(O)cc2O[C@@H](c2ccc(O)c(O)c2)[C@H]1O` [(+)-EPITAXIFOLIN], for which, in data set [2], the dissociation constant Kd amounted to 2.63 µM.

For the molecule `Oc1cc(O)c2c(c1)O[C@H](c1ccc(O)c(O)c1)[C@@H](O)C2` [CIANIDANOL], the Kd in data set [2] amounted to 1.58 µM; in data set [3], 1.84 µM.

Take `O=c1ccc2ccccc2o1` [COUMARIN]: the Kd in data set [2] worked out at 0.273 µM; in data set [3], 0.231 µM.

In the case of `O=C1c2c(O)cc(O)cc2O[C@@H](c2cc(O)c(O)c(O)c2)[C@H]1O`, the Kd in data set [2] is 4.78 µM; in data set [3] it was 3.9 µM.

Take `CC(=O)NCC#Cc1ccc(C(=O)NCC(=O)O)cc1`: the outcome in data set [4] was inactive. In data set [5], this molecule came in with a Cmax of 5.81 ng/mL. The molecule also had a half-life in data set [6] of 1.94 h. The Activity result in data set [7] is on record as “Not Active”. In addition, the AUC in data set [8] was found to be 59.2 ng·h/mL.

The values above are taken from ChEMBL document CHEMBL5500366, “Discovery of the small molecular inhibitors against sclerostin loop3 as potential anti-osteoporosis agents by structural based virtual screening and molecular design” (Eur J Med Chem, 2024).
